Patent US20250154193A1, “STEROID COMPOUND, AND PREPARATION METHOD THEREFOR AND APPLICATION THEREOF” (CHOLESGEN (SHANGHAI) CO., LTD., priority 2022, published 2025)

What follows are molecules tested on SREBP pathway (assay: SREBP luciferase reporter gene system (SRE-luciferase assay) in Huh-7/SRE-Luc cells). Details: Homo sapiens, sterol-deficient medium, compound treatment 16 hours, luciferase/GFP ratio.
Format: cell-based
Method: Huh-7/SRE-Luc, a human hepatocellular carcinoma cell line, was grown in a culture medium containing DMEM, 10% fetal bovine serum, 100 units/mL penicillin, 100 µg/mL streptomycin, and 200 μg/mL G418.
The Huh-7/SRE-Luc cell line is a human hepatocellular carcinoma cell line Huh-7 stably expressing LDLR promoter-luciferase and green fluorescent protein (GFP). The LDLR promoter region contains a sterol regulatory element (SRE) that can effectively and sensitively respond to the regulation of the transcription factor SREBP. The GFP signal serves as an internal reference to indicate changes in cell number. Therefore, this cell line can be used to screen for active small molecules that regulate the SREBP signaling pathway. […] Cells were incubated in a sterol-deficient medium (5% lipoprotein-deficient serum, 2 μM Lovastatin, 10 μM mevalonate) and treated with corresponding concentrations of compounds for 16 hours. After compound treatment, the cells were lysed with lysis buffer (E397A, Promega), followed by the addition of luciferase substrate (E1500, Promega). The SRE-driven luciferase activity was measured using a BioTek Synergy HTX microplate reader (including but not limited to this type of instrument). The fluorescence intensity of enhanced green fluorescent protein (EGFP) was also measured using the BioTek microplate reader (including but not limited to this type of instrument) and used as an internal reference. The ratio of SRE-driven luciferase activity to GFP fluorescence intensity was used as an indicator of SREBP pathway activity. The test data of each test compound was analyzed using Prism software to obtain the IC50 parameter of the compound.
The inhibitory effect of the compounds of the present disclosure on the SREBP pathway was tested by the method of bioassay example 2. The concentration gradient of each compound was designed as 0.01, 0.03, 0.1, 0.3, 1.0, 3.0, and […], with DMSO as a vehicle control.

| SMILES | IC50 [µM] |
| --- | --- |
| C[C@H](CCCC(C)(C)O)[C@H]1CC[C@H]2[C@@H]3CC(=O)[C@H]4C[C@@H](O)CC[C@]4(C)[C@H]3CC[C@]12C [compound 255, 3P,25-dihydroxy-5α-cholest-6-one] | 0.452 |
| C[C@H](CCCC(C)(C)O)[C@H]1CC[C@H]2[C@@H]3CCC4(F)C[C@@H](O)CC[C@]4(C)[C@H]3CC[C@]12C (stereo partly drawn) [compound 266, 5-fluorocholest-3β,25-diol] | 0.176 |
| C[C@H](CCN(C)C(=O)c1ccccc1F)[C@H]1CC[C@H]2[C@@H]3CC[C@H]4C[C@@H](O)CC[C@]4(C)[C@H]3CC[C@]12C [compound 268, 2-fluoro-N-[(3R)-3-[(1R,3aS,3bR,5aS,7S,9aS,9bS,11aR)-7-hydroxy-9a,11a-dimethylhexadecahydro-1H-cyclopenta[1,2-a]phenanthren-1-yl]butyl]-N-methylbenzamide] | 0.825 |
| C[C@H](CCCC(O)c1ccccc1F)[C@H]1CC[C@H]2[C@@H]3C(=O)C[C@H]4[C@@H](O)[C@@H](O)CC[C@]4(C)[C@H]3CC[C@]12C (stereo partly drawn) [compound 271, 24-[(2-fluorophenyl)(hydroxy)methyl]-4β-hydroxy-3β-hydroxy-5α-cholan-7-one] | 0.139 |
| C[C@H](CCCC(C)(C)O)[C@H]1CC[C@H]2[C@@H]3C[C@H](O)[C@H]4[C@@H](O)[C@@H](O)CC[C@]4(C)[C@H]3CC[C@]12C [compound 272, 5α-cholest-3β,4P,6α,25-tetraol] | 20.1 |
| C[C@H](CCCC(C)(C)O)[C@H]1CC[C@H]2[C@@H]3CCC4(O)C(=O)[C@@H](O)CC[C@]4(C)[C@H]3CC[C@]12C (stereo partly drawn) [compound 276, 3P,5,25-trihydroxycholest-4-one] | 0.522 |
| C[C@H](CCCC(C)(O)c1ccccc1F)[C@H]1CC[C@H]2[C@@H]3CC[C@H]4[C@@H](O)[C@@H](O)CC[C@]4(C)[C@H]3CC[C@]12C (stereo partly drawn) [compound 278, 24-[1-(2-fluorophenyl)-1-hydroxyethyl]-5α-cholan-3β,4β-diol] | 0.106 |
| C[C@H](CCCC(O)c1cc(F)cc(F)c1)[C@H]1CC[C@H]2[C@@H]3CC[C@H]4[C@@H](O)[C@@H](O)CC[C@]4(C)[C@H]3CC[C@]12C (stereo partly drawn) [compound 282, 24-[(3,5-difluorophenyl)(hydroxy)methyl]-5α-cholan-3β,4β-diol] | 0.117 |
| C[C@H](CCCC(C)(C)O)[C@H]1CC[C@H]2[C@@H]3/C(=N/O)C[C@H]4C[C@@H](O)CC[C@]4(C)[C@H]3CC[C@]12C [compound 285, [(1R,3aS,3bR,4E,5aS,7S,9aS,9bS,11aR)-7-hydroxy-1-[(2R)-6-hydroxy-6-methylheptan-2-yl]-9a,11a-dimethylhexadecahydro-1H-cyclopenta[1,2-a]phenanthren-4-ylidene]hydroxylamine] | 0.793 |
| C[C@H](CCCC(O)c1ccccc1C(F)(F)F)[C@H]1CC[C@H]2[C@@H]3CC[C@H]4[C@@H](O)[C@@H](O)CC[C@]4(C)[C@H]3CC[C@]12C (stereo partly drawn) [compound 286, 24-{hydroxy[2-(trifluoromethyl)phenyl]methyl}-5α-cholan-30,40-diol] | 0.575 |
| C[C@H](CCCC1(O)CC1)[C@H]1CC[C@H]2[C@H]3[C@H](CC[C@]12C)[C@@]1(C)CC[C@H](O)C[C@@H]1CC3(F)F [compound 288, (1R,3aS,5aR,7S,9aS,11aR)-4,4-difluoro-1-[(2R)-5-(hydroxycyclopropyl)pentan-2-yl]-9a,11a-dimethylhexadecahydro-1H-cyclopenta[1,2-a]phenanthrene-7-ol] | 0.308 |
| C[C@H](CCCC(O)c1c(F)cccc1F)[C@H]1CC[C@H]2[C@@H]3C(=O)C[C@H]4[C@@H](O)[C@@H](O)CC[C@]4(C)[C@H]3CC[C@]12C (stereo partly drawn) [compound 289, 24-[(2,6-difluorophenyl)(hydroxy)methyl]-4β-hydroxy-3β-hydroxy-5α-cholan-7-one] | 0.117 |
| CC(O)C1CC[C@@]2(C)[C@@H](CC[C@@H]3[C@@H]2CC[C@]2(C)[C@@H]([C@H](C)CCCC(C)(C)O)CC[C@@H]32)C1 (stereo partly drawn) [compound 290, 3-(1-hydroxyethyl)-5α-cholest-25-ol] | 0.699 |
| C[C@H](CCCC(C)(C)O)[C@H]1CC[C@H]2[C@@H]3CC[C@H]4C(F)(F)[C@@H](O)CC[C@]4(C)[C@H]3CC[C@]12C [compound 291, (1R,3aS,3bS,5aR,7S,9aR,9bS,11aR)-6,6-difluoro-1-[(2R)-6-hydroxy-6-methylheptan-2-yl]-9a,11a-dimethylhexadecahydro-1H-cyclopenta[1,2-a]phenanthrene-7-ol] | 0.065 |
| C[C@H](CCCC(C)(C)O)[C@H]1CC[C@H]2[C@@H]3CC[C@H]4C[C@@H](OC(=O)CO)CC[C@]4(C)[C@H]3CC[C@]12C [compound 292, (1R,3aS,3bR,5aS,7S,9aS,9bS,11aR)-1-[(2R)-6-hydroxy-6-methylheptan-2-yl]-9a,11a-dimethylhexadecahydro-1H-cyclopenta[1,2-i]phenanthren-7-yl hydroxyacetate] | 0.171 |
| C[C@H](CCCC(C)(C)O)[C@H]1CC[C@H]2[C@@H]3CC[C@H]4C[C@@H](OC(=O)CC(=O)O)CC[C@]4(C)[C@H]3CC[C@]12C [compound 293, 3-{[(1R,3aS,3bR,5aS,7S,9aS,9bS,11aR)-1-[(2R)-6-hydroxy-6-methylheptan-2-yl]-9a,11a-dimethylhexadecahydro-1H-cyclopenta[1,2-a]phenanthren-7-yl]oxy}-3-oxopropanoic acid] | 0.136 |
| C[C@H](CCCC(C)(C)O)[C@H]1CC[C@H]2[C@@H]3CC[C@H]4C[C@@H](OC(=O)CCC(=O)O)CC[C@]4(C)[C@H]3CC[C@]12C [compound 294, 4-{[(1R,3aS,3bR,5aS,7S,9aS,9bS,11aR)-1-[(2R)-6-hydroxy-6-methylheptan-2-yl]-9a,11a-dimethylhexadecahydro-1H-cyclopenta[1,2-a]phenanthren-7-yl]oxy}-4-oxobutanoic acid] | 0.139 |
| C[C@H](CCCC(C)(C)O)[C@H]1CC[C@H]2[C@@H]3C[C@@H](N)[C@H]4[C@@H](O)[C@@H](O)CC[C@]4(C)[C@H]3CC[C@]12C [compound 295, 6-amino-5α-cholest-3β,4p,25-triol] | > 10 |
| C[C@H](CCCC(O)c1c(F)cccc1F)[C@H]1CC[C@H]2[C@@H]3C(N)C[C@H]4[C@@H](O)[C@@H](O)CC[C@]4(C)[C@H]3CC[C@]12C (stereo partly drawn) [compound 299, 7-amino-24-[(2,6-difluorophenyl)(hydroxy)methyl]-5α-cholan-3P,4β-diol] | 4.83 |
| C[C@H](CCCC(O)c1c(F)cccc1F)[C@H]1CC[C@H]2[C@H]3[C@H](CC[C@]12C)[C@@]1(C)CC[C@H](O)C(=O)[C@@H]1CC3(F)F (stereo partly drawn) [compound 301, (1R,3aS,3bS,5aR,7S,9aR,9bS,11aR)-1-[(2R)-6-(2,6-difluorophenyl)-6-hydroxyhexan-2-yl]-4,4-difluoro-7-hydroxy-9a,11a-dimethylhexadecahydro-1H-cyclopenta[1,2-α]phenanthren-6-one] | 0.04 |
| C[C@H](CCCC(C)(C)O)[C@H]1CC[C@H]2[C@@H]3CC[C@H]4[C@@H](N)[C@@H](O)CC[C@]4(C)[C@H]3CC[C@]12C [compound 303, 4-amino-5α-cholest-3β,25-diol] | 7.08 |
| CC(O)CCC[C@@H](C)[C@H]1CC[C@H]2[C@@H]3CC[C@H]4[C@@H](O)[C@@H](O)CC[C@]4(C)[C@H]3CC[C@]12C (stereo partly drawn) [compound 304, 24-(1-hydroxyethyl)-5α-cholan-3β,4β-diol] | 0.173 |
| C[C@H](CCCC(O)c1ccccc1)[C@H]1CC[C@H]2[C@@H]3CC[C@H]4[C@@H](O)[C@@H](O)CC[C@]4(C)[C@H]3CC[C@]12C (stereo partly drawn) [compound 305, 24-(hydroxyphenylmethyl)-5α-cholan-3β,4β-diol] | 0.119 |
| C[C@H](CCCC(C)(C)O)[C@H]1CC[C@H]2[C@@H]3CC[C@H]4CC(C)(O)CC[C@]4(C)[C@H]3CC[C@]12C (stereo partly drawn) [compound 307, 3-methylcholest-3,25-diol] | 0.588 |
| C[C@H](CCCC(C)(C)O)[C@H]1CC[C@H]2[C@@H]3CC[C@H]4CC(CO)CC[C@]4(C)[C@H]3CC[C@]12C (stereo partly drawn) [compound 308, 3-(hydroxymethyl)-5α-cholest-25-ol] | 0.979 |
| C[C@H](CCCC(C)(C)O)[C@H]1CC[C@H]2[C@@H]3CC[C@H]4CC(C(=O)O)CC[C@]4(C)[C@H]3CC[C@]12C (stereo partly drawn) [compound 309, 25-hydroxy-5α-cholest-3-carboxylic acid] | 8.96 |
| C[C@H](CCCC(C)(C)O)[C@H]1CC[C@H]2[C@@H]3CC[C@H]4CC(NS(C)(=O)=O)CC[C@]4(C)[C@H]3CC[C@]12C (stereo partly drawn) [compound 310, N-[(1R,3aS,3bR,9aS,9bS,11aR)-1-[(2R)-6-hydroxy-6-methylheptan-2-yl]-9a,11a-dimethylhexadecahydro-1H-cyclopenta[1,2-a]phenanthrene-7-yl]methanesulfonamide] | 1.41 |
